Results as given in patent publication US20050008596A1, “Composition containing an oxidation-sensitive active principle and a polyisobutylene polymer” (L'OREAL, priority 2003, published 2005).

Test: Accelerated storage test: decomposition of ascorbic acid in the composition after two months at 45° C., HPLC
Format: physicochemical
Conditions: formulated in the presence of Lubrizol 5603, compared with conventional emulsifier; even in the presence of oxygen
Protocol: The aim of this test is to study the decomposition of an oxidation-sensitive hydrophilic active principle in a composition, after storage for two months at 45° C.
The degree of decomposition measured is given by the ratio: (C0-C2 months)/C0 with C0 being the concentration of ascorbic acid at t=0 and C2 months being the concentration of ascorbic acid at t=2 months.
The concentration of ascorbic acid is determined by the HPLC technique (Merck LaChrom system). The analytical conditions are as follows: • Column: Lichrosphere 100 RP18 (250 mm) • Eluant: 0.1M phosphate buffer, pH 2.1 • Flow rate: 1 ml/min • Detection at 257 nm. • Dilution of the sample such that the concentration of ascorbic acid is between 0.05 and 1 mg/ml.
The test was carried out with the composition Example 1, and with the composition of Comparative Example 1 which contains, instead of the polymer according to the invention, a conventionally used emulsifier, cyclopentasiloxane and PEG/PPG-18/18 dimethicone.

Increase of stability of the ascorbic acid: 50%
Compound: O=C1O[C@H]([C@@H](O)CO)C(O)=C1O [ascorbic acid]
